From patent US20030134901A1, “Lipoxin compounds and their use in treating cell proliferative disorders” (priority 1993, published 2003)

Tested on: PLD activity in differentiated HL-60 cells
Test: PLD activity (PEt formation) in differentiated HL-60 cells
Assay type: cell-based, human
Settings: differentiated HL-60 cells, biphasic response
Method: Cell cultures and differentiation. HL-60 cells were seeded in RPMI medium supplemented with 100 U/ml penicillin, 100 μg/ml streptomycin, and 10% fetal calf serum (Hyclone, Logan, Utah), incubated at 37° C. with 5% CO2 atmosphere in 250 ml flasks. Individual flasks containing ˜[…] next received dimethyl sulfoxide (DMSO) (1.12% v/v, 120 h) or retinoic acid (RA) (1 μM, 120 h) or phorbol myristate acetate (PMA) (20 nM, 48 h). Before performing binding assays, cells were washed twice in phosphate buffered saline (PBS), Ca^2+- and Mg^2+-free, enumerated and suspended at 20×10^6 cells/ml in Tris buffer (10 mM), pH 7.4 (Fiore, S. et al.(1992) J. Biol. Chem. 267:16168). Nitro blue tetrazolium reduction was performed to monitor induction of polymorphonuclear phenotype as in (Imaizumi, M. and Breitman, T. R. (1986) Blood 67:1273), and cell adherence was determined for induction of macrophage-like phenotype (Collins, S. J. (1987) Blood 70:1273). Human umbilical vein endothelial cells (HUVEC) maintained in culture third passage were obtained from Dr. M. Gimbrone (Brigham and Women's Hospital Department of Pathology).
PLD activity. Human PMN and HL-60 cells (50×10^6 cells/ml) prepared as above were incubated with ^3H-myristic acid or ^3H-palmitic acid (8 μCi/50×10^6 cells) for 40-60 min at 37° C. in PBS. Cell uptake ranged between 60-80% of added label, 7.1±4.2% (n=10; mean ±S.D.) and 32.6±10.3% (n=6; mean ±S.D.) into total phospholipid classes of PMN and HL-60 cells, respectively. Incubations were carried out at 37° C. (10 ×10^6 cells/ml PBS). […] At indicated times, incubations were stopped by adding 3.5 ml of ice cold CHCl3/MeOH (2/5, v/v) containing 1-^14C-arachidonic acid (5,000 cpm) used here as internal standard to quantitate extraction recoveries. […] Regions corresponding to PA, PEt, and internal standards were scraped and quantified by liquid scintillation counting. […] All values reported for PEt formation in Tables 4 and 5 were calculated by subtracting the dpm obtained in the presence of […]. […]

CCCCC[C@H](O)/C=C/C=C\C=C\C=C\[C@@H](O)[C@@H](O)CCCC(=O)O [LXA4, (5S, 6R, 15S)-trihydroxy-7E, 9E, 11Z, 13E-eicosatetraenoic acid]
concentration of apparent maximum, PEt formation: 10^−9 M
